According to US4758558A, “N-(substituted)-[7-(2-cyanoacetamido)cephalosporanic]amide derivatives having antibiotic utility” (priority 1982, dated 1988):

Experiments:
Pseudomonas aeruginosa = assay: Effect on intestinal bacteria: number of Pseudomonas aeruginosa in feces; type: in vivo, ICR mice; details: mouse, in vivo, po, 500 mg/kg/day
Procedure: (§1) Effects of the present compound on intestinal bacteria
(§2) Each of the present compounds respectively produced in Examples 1 to 18 was orally administered continuously for 2 days at a daily dose rate of 500 mg/kg body weight to each of five female ICR mice of each group after 6 weeks of their birth.
(§3) Each of the two fecal specimens respectively collected from each mouse before and after one day of the administration was diluted with 100 times by weight of an anaerobic diluent (a phosphoric acid buffer solution) and was ground in a mortar, and 0.1 ml of the thus ground material was smeared on each of the following culture media for the following bacteria, and the thus inoculated culture media were incubated under the following conditions. Thereafter, the number of the following bacteria in each of the thus cultured media was determined.
NAC agar 37° C., one day, […]

[1] = tested on: Staphylococcus aureus IAM 1011; assay: Antibacterial activity in vitro (MIC) against Staphylococcus aureus; type: cell-based; details: IAM1011, Mueller-Hinton agar, 18 to 24 hours, 37° C., read-out: MIC (minimum growth inhibiting concentration) against Staphylococcus aureus
Procedure: (§4) (c) Anti-bacterial activity (in vitro):
(§5) Minimum concentration of the present compound inhibiting the growth of the following bacteria was determined according to the standard procedures of Japan Society of Chemotherapy:
Staphylococcus aureus IAM 1011
(§6) Determination of the antibacterial activity of the present compound produced in Examples 1 to 18, respectively was carried out according to the standard procedures of Japan Society of Chemotherapy for finding MIC (the minimum concentration of a specimen to inhibit the growth of a species of bacteria).
(§7) A series of diluted solutions of each of the present compound were mixed with 9 times by weight of Mueller-Hinton's culture medium as the culture medium for determining the sensitivity of a bacterial species, and flat agar culture plates were prepared by using the thus obtained mixture.
(§8) Each of the liquids respectively containing one of the bacterial species shown in Table 2 was smeared onto each of the thus prepared flat agar culture plates with a platinum loop, in length of about 2 cm, and the thus treated plates were incubated for 18 to 24 hours at 37° C. Thereafter, by observing the growth state of each bacterial species on the cultured plates, the minimum concentration of each compound completely inhibiting the growth of each bacterial species was found.

a species of Bacteroides = assay: Effect on intestinal bacteria: number of a sp. of Bacteroides in feces; type: in vivo, ICR mice; details: mouse, in vivo, po, 500 mg/kg/day
Procedure: (§9) (b) Effect on the intestinal bacterial colonies: […]
as §1, §2, §3
a species of Bacteroides
NBGT agar 37° C., 5 days, […]

[2] = tested on: Staphylococcus aureus IAM 1011; assay: Treatment of experimental infectious disease in mouse due to Staphylococcus aureus; type: in vivo, ddY SPE mice; details: oral, two times just after and 4 hours after inoculation; 2.3×10^8 cells i.p.
Excerpt: (§10) (e) Effectiveness in treating experimental infectious disease due to bacteria:
(§11) (Refer to Example 22 for the details of the test.) As the result, while all the twenty mice artificially infected with each of the two bacterial species and not-treated with any of the present compound died on the second day of inoculation, more than 40% of the twenty mice artificially infected with each of the two bacterial species and administered with each of the three present compounds were alive even after 7 days of inoculation.
(§12) Effectiveness of the present compound in treatment of an experimental infectious disease in mouse
(2) Disease due to infection of Staphylococcus aureus
(§13) Each mouse of the two groups (20 animals/group) of ddY SPE mice was inoculated with 2.3×10^8 cells of Staphylococcus aureus IAM 1011 intraperitoneally, and then, each mouse of the one of the two groups was administered orally with one of the present compounds, namely the compound produced in Example 5, 10 or 13, two times just after and 4 hours after the inoculation, while the 20 mice of the other group were not administered.

[3] = tested on: Escherichia coli IFO 12734; assay: Treatment of experimental infectious disease in mouse due to Escherichia coli; type: in vivo, ddY SPE mice; details: oral, two times just after and 4 hours after inoculation; 1.4×10^8 cells i.p.
Excerpt: as §10, §11, §12
(1) Disease due to infection of Escherichia coli
as §13, with “1.4×10^8” for “2.3×10^8”, “Escherichia coli IFO 12734” for “Staphylococcus aureus IAM 1011”

Lactobacillus bifidus = assay: Effect on intestinal bacteria: number of Lactobacillus bifidus in feces; type: in vivo, ICR mice; details: mouse, in vivo, po, 500 mg/kg/day
Procedure: as §9, §1, §2, §3
BS agar 37° C., 5 days, […]

[4] = tested on: a species of Lactobacillus; assay: Effect on intestinal bacteria: number of a sp. of Lactobacillus in feces; type: in vivo, ICR mice; details: mouse, in vivo, po, 500 mg/kg/day
Procedure: as §9, §1, §2, §3
a species of Lactobacillus
LBS agar 37° C., 5 days, […]

[5] = tested on: Escherichia coli IFO 12734; assay: Antibacterial activity in vitro (MIC) against Escherichia coli; type: cell-based; details: IFO12734, Mueller-Hinton agar, 18 to 24 hours, 37° C., read-out: MIC (minimum growth inhibiting concentration) against Escherichia coli
Procedure: as §4, §5
Escherichia coli IFO 12734 and
as §6, §7, §8

[6] = tested on: a species of Streptococcus; assay: Effect on intestinal bacteria: number of a sp. of Streptococcus in feces; type: in vivo, ICR mice; details: mouse, in vivo, po, 500 mg/kg/day
Procedure: as §9, §1, §2, §3
a species of Streptococcus
TATAC agar 37° C., one day, […]

Escherichia coli = assay: Effect on intestinal bacteria: number of Escherichia coli in feces; type: in vivo, ICR mice; details: after oral administration for 2 days, 500 mg/kg/day, female ICR mice; before: 6.4
Procedure: (b) Effect on the intestinal bacterial colonies:
[…] Each portion of the two kinds of the feces was cultured at 25° C. or 37° C. in a variety of culture medium for one to five days to see the state of Escherichia coli, Pseudomonas aeruginosa, a Streptococcus species, a Lactobacillus species, Lactobacillus bifidus and a Bacteroides species in the culture medium.
as §1
as §3, with “specimens respectively collected from each mouse before and after one day of the administration was diluted with 100 times” left out

CC(=O)OCC1=C(C(=O)Nc2ccc(C)cc2)N2C(=O)C(NC(=O)CC#N)C2SC1 (stereo not drawn) [Example 10, N-(4-methylphenyl)-[7-(2-cyanoacetamido)caphalosporanic]amide]
Number of Pseudomonas aeruginosa after the administration (Pseudomonas aeruginosa): < 3.0 Log10 (number of bacteria/g feces)
MIC [1]: ≥ 100 µg/mL
Number of a sp. of Bacterioides after the administration (a species of Bacteroides): 8.9 Log10 (number of bacteria/g feces)
mice alive on the 7th day of inoculation (Staphylococcus aureus infection) [2]: more than 85%
mice alive on the 7th day of inoculation (Escherichia coli infection) [3]: more than 80%
Number of Lactobacillus bifidus after the administration (Lactobacillus bifidus): 8.2 Log10 (number of bacteria/g feces)
Number of a sp. of Lactobacillus after the administration [4]: 9.0 Log10 (number of bacteria/g feces)
MIC [5]: ≥ 100 µg/mL
Number of a sp. of Streptococcus after the administration [6]: 6.8 Log10 (number of bacteria/g feces)
Number of Escherichia coli after the administration (Escherichia coli): 6.8 Log10 (number of bacteria/g feces)

COC(=O)CNC(=O)c1ccc(NC(=O)C2=C(C)CSC3C(NC(=O)[C@H](N)c4ccccc4)C(=O)N23)cc1 (stereo partly drawn) [Example 5, N-(4-carbomethoxymethylcarbamoylphenyl)-[7-(D-alpha-aminophenylacetamido)desacetoxycephalosporanic]amide]
Number of Pseudomonas aeruginosa after the administration (Pseudomonas aeruginosa): < 3.0 Log10 (number of bacteria/g feces)
MIC [1]: ≥ 100 µg/mL
Number of a sp. of Bacterioides after the administration (a species of Bacteroides): 8.4 Log10 (number of bacteria/g feces)
mice alive on the 7th day of inoculation (Staphylococcus aureus infection) [2]: more than 65%
mice alive on the 7th day of inoculation (Escherichia coli infection) [3]: more than 60%
Number of Lactobacillus bifidus after the administration (Lactobacillus bifidus): 8.4 Log10 (number of bacteria/g feces)
Number of a sp. of Lactobacillus after the administration [4]: 8.9 Log10 (number of bacteria/g feces)
MIC [5]: ≥ 100 µg/mL
Number of a sp. of Streptococcus after the administration [6]: 6.7 Log10 (number of bacteria/g feces)
Number of Escherichia coli after the administration (Escherichia coli): 6.5 Log10 (number of bacteria/g feces)

COC(=O)c1ccc(NC(=O)C2=C(COC(C)=O)CSC3C(NC(=O)CC#N)C(=O)N23)cc1 (stereo not drawn) [Example 7, N-(4-carbomethoxyphenyl)-[7-(2-cyanoacetamido)cephalosporanic]amide]
Number of Pseudomonas aeruginosa after the administration (Pseudomonas aeruginosa): < 3.0 Log10 (number of bacteria/g feces)
MIC [1]: ≥ 100 µg/mL
Number of a sp. of Bacterioides after the administration (a species of Bacteroides): 8.7 Log10 (number of bacteria/g feces)
Number of Lactobacillus bifidus after the administration (Lactobacillus bifidus): 8.3 Log10 (number of bacteria/g feces)
Number of a sp. of Lactobacillus after the administration [4]: 9.0 Log10 (number of bacteria/g feces)
MIC [5]: ≥ 100 µg/mL
Number of a sp. of Streptococcus after the administration [6]: 6.7 Log10 (number of bacteria/g feces)
Number of Escherichia coli after the administration (Escherichia coli): 6.5 Log10 (number of bacteria/g feces)

CC(=O)OCC1=C(C(=O)Nc2ccc(C(N)=O)cn2)N2C(=O)C(NC(=O)CC#N)C2SC1 (stereo not drawn) [Example 11, N-(nicotinic amido)-[7-(2-cyanoacetamido)cephalosporanic]amide]
Number of Pseudomonas aeruginosa after the administration (Pseudomonas aeruginosa): < 3.0 Log10 (number of bacteria/g feces)
MIC [1]: ≥ 100 µg/mL
Number of a sp. of Bacterioides after the administration (a species of Bacteroides): 8.6 Log10 (number of bacteria/g feces)
Number of Lactobacillus bifidus after the administration (Lactobacillus bifidus): 8.2 Log10 (number of bacteria/g feces)
Number of a sp. of Lactobacillus after the administration [4]: 9.1 Log10 (number of bacteria/g feces)
MIC [5]: ≥ 100 µg/mL
Number of a sp. of Streptococcus after the administration [6]: 6.7 Log10 (number of bacteria/g feces)
Number of Escherichia coli after the administration (Escherichia coli): 6.8 Log10 (number of bacteria/g feces)

COC(=O)c1ccc(NC(=O)C2=C(COC(C)=O)CSC3C(NC(=O)CSc4ccncc4)C(=O)N23)cc1 (stereo not drawn) [Example 1, N-(4-carbomethoxyphenyl)-[7-beta-(4-pyridylthioacetamido)cephalosporanic]amide]
Number of Pseudomonas aeruginosa after the administration (Pseudomonas aeruginosa): < 3.0 Log10 (number of bacteria/g feces)
MIC [1]: ≥ 12.5 µg/mL
Number of a sp. of Bacterioides after the administration (a species of Bacteroides): 8.8 Log10 (number of bacteria/g feces)
Number of Lactobacillus bifidus after the administration (Lactobacillus bifidus): 8.4 Log10 (number of bacteria/g feces)
Number of a sp. of Lactobacillus after the administration [4]: 9.1 Log10 (number of bacteria/g feces)
MIC [5]: ≥ 100 µg/mL
Number of a sp. of Streptococcus after the administration [6]: 6.7 Log10 (number of bacteria/g feces)
Number of Escherichia coli after the administration (Escherichia coli): 6.9 Log10 (number of bacteria/g feces)

Cc1nnc(SCC2=C(C(=O)Nc3ccc(C(=O)O)cc3)N3C(=O)C(NC(=O)Cn4cnnn4)C3SC2)s1 (stereo not drawn) [Example 12, N-(4-carboxyphenyl)-{7-(1-1H-tetrazolylacetamido)-3-[2-(5-methyl-1,3,4-thiadiaziolyl)thiomethyl]-3-cephem-4-carboxylic}amide]
Number of Pseudomonas aeruginosa after the administration (Pseudomonas aeruginosa): < 3.0 Log10 (number of bacteria/g feces)
MIC [1]: ≥ 1.56 µg/mL
Number of a sp. of Bacterioides after the administration (a species of Bacteroides): 8.8 Log10 (number of bacteria/g feces)
Number of Lactobacillus bifidus after the administration (Lactobacillus bifidus): 8.2 Log10 (number of bacteria/g feces)
Number of a sp. of Lactobacillus after the administration [4]: 8.9 Log10 (number of bacteria/g feces)
MIC [5]: ≥ 25 µg/mL
Number of a sp. of Streptococcus after the administration [6]: 6.7 Log10 (number of bacteria/g feces)
Number of Escherichia coli after the administration (Escherichia coli): 6.5 Log10 (number of bacteria/g feces)

COC(=O)Cc1ccc(NC(=O)C2=C(C)CSC3C(NC(=O)[C@H](N)c4ccccc4)C(=O)N23)cc1 (stereo partly drawn) [Example 4, N-(4-carbomethoxymethylphenyl)-[7-(D-alpha-aminophenylacetamido)desacetoxycephalosporanic]amide]
Number of Pseudomonas aeruginosa after the administration (Pseudomonas aeruginosa): < 3.0 Log10 (number of bacteria/g feces)
MIC [1]: ≥ 100 µg/mL
Number of a sp. of Bacterioides after the administration (a species of Bacteroides): 8.3 Log10 (number of bacteria/g feces)
Number of Lactobacillus bifidus after the administration (Lactobacillus bifidus): 8.3 Log10 (number of bacteria/g feces)
Number of a sp. of Lactobacillus after the administration [4]: 8.9 Log10 (number of bacteria/g feces)
MIC [5]: ≥ 100 µg/mL
Number of a sp. of Streptococcus after the administration [6]: 6.8 Log10 (number of bacteria/g feces)
Number of Escherichia coli after the administration (Escherichia coli): 6.6 Log10 (number of bacteria/g feces)
